According to US9040544B2, “2,5-substituted oxazolopyrimidine derivatives” (Sanofi, priority 2010, dated 2015):

What follows are compounds tested against T1, human Edg-1 receptor (Homo sapiens, UniProt P21453) (assay: GTP-γ-S assay using human Edg-1 receptors (scintillation proximity assay, CHO Flp-In cell membrane preparation)). Conditions: test compound at 10 μM; 10 μM S1P regarded as 100% activation; background-corrected; triplicate; read-out: % Activation (Edg-1 receptor activation in percent of the activation by 10 μM S1P).
T1 construct: expressed in transfected cells; host or cells: Flp-In-CHO cells, stably transfected; membrane preparation
Format: biochemical
Text: A) GTP-γ-S assay using human Edg-1 receptors
In order to determine the Edg-1 receptor activation by the compounds of the invention, a GTP-γ-S (guanosine 5′-[thio]triphosphate) assay for G-protein coupled receptor binding based on the scintillation proximity assay principle was used, employing a cell membrane preparation from a CHO Flp-In cell line which constitutively overexpresses the human Edg-1 receptor.
(a) Cell line generation The Flp-In™ expression system (Invitrogen, cat. no. K6010-01) allows the generation of stable mammalian cell lines into which the gene of interest has been integrated through homologous recombination at a specific genomic location called Flp Recombination Target (FRT) site by means of a Flp recombinase encoded by the pOG44 expression plasmid. The integration of the pcDNA5/FRT expression construct into the Flp-In host cell line genome results in the transcription of the gene of interest. The stably transfected cells become hygromycin-resistant.
One day prior to transfection, 200 000 Flp-In-CHO cells were seeded in Ham F-12 medium (Invitrogen, cat. no. 31765) supplemented with 10% fetal calf serum (FCS; Perbio Science, cat. no. SH30068.03) in a 6-well plate and incubated at 37° C./5% CO2 overnight. Using the FuGENE® 6 transfection reagent (Roche, cat. no. 11988387001), cells were cotransfected with the Flp recombinase expression plasmid pOG44 and a modified plasmid additionally containing the edg-1 gene (accession no. NM_001400) termed as pcDNA5-FRT-TO_nFLAG_DEST-EDG-1 with a 9:1 ratio. To obtain the modified pcDNA5-FRT-TO_nFLAG_DEST plasmid, the Invitrogen plasmid pcDNA5/FRT/TO (Invitrogen, cat. no. V6520-20) was adapted to the Gateway® (Invitrogen) cloning system by inserting a Gateway cassette containing attR recombination sites flanking a ccdB gene and a chloramphenicol-resistance gene (Gateway conversion system, Invitrogen, cat. no. 11828-029). In addition a FLAG tag epitope was added before the 5′ att recombination site to allow recombinant expression of N-terminally FLAG-tagged proteins.
For the transfection of one well, 1.08 μg of pOG44 and 0.12 μg of pcDNA5-FRT-TO_nFLAG_DEST-EDG-1 were mixed to 100 μl of serum-free Ham F-12 medium containing 6 μl of FuGENE® 6 transfection reagent. After 20 min of incubation, the transfection reagent/DNA complex was distributed dropwise on the cells. The cells were incubated for 24 h at 37° C. Then the cells from 3 wells were transferred to a T75 flask (Greiner Cellstar®, cat. no. 658175) containing Ham F-12 medium supplemented with 10% of FCS but without antibiotic and were incubated another 24 h. 48 h after transfection, the medium was replaced by selection medium (Ham F-12 supplemented with 10% of FCS and 300 μg/ml of hygromycin B (Invitrogen, cat. no. 10687-010)). The medium was exchanged every 2 to 3 days until a resistant population of cells had grown. […] After 2 weeks of selection, the cells were transferred into T175 flasks (Greiner Cellstar®, cat. no. 660175) and cultivated for batch production. Cells were harvested from the culture flasks by short treatment (2 to 5 min) with Accutase (PAA, cat. no. L11-007), resuspended in selection medium (see above) and centrifuged at 200×g for 5 min. Cells were resuspended in a mixture of 90% of FCS and 10% of dimethylsulfoxide and stored frozen in liquid nitrogen.
A membrane preparation was obtained by standard methods from the afore-described CHO Flp-ln cell line constitutively overexpressing the human Edg-1 receptor. Briefly, the cryopreserved cells were taken in culture and grown until confluency in T175 cell culture flasks (Becton Dickinson, cat. no. 35 5001). […]

T1 sequence (P21453 whole entry): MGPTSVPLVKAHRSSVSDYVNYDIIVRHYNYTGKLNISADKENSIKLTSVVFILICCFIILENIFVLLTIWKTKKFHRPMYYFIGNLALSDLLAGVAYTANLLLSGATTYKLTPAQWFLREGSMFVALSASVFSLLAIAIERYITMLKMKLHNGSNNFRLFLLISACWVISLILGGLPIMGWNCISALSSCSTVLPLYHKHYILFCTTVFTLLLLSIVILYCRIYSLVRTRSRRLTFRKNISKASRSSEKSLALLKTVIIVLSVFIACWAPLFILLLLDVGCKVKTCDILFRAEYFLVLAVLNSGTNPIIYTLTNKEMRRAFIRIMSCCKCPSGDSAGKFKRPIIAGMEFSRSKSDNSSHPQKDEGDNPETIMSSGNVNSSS

Structure (SMILES) | activation at 10 µM
COc1c(C)cc(-c2nc3cnc(Oc4ccccc4F)nc3o2)cc1C [Example 1, 5-(2-Fluoro-phenoxy)-2-(4-methoxy-3,5-dimethyl-phenyl)-oxazolo[5,4-d]pyrimidine] | 102%
Cc1cc(-c2nc3cnc(Oc4cccnc4)nc3o2)cc(C)c1O [Example 11, 2,6-dimethyl-4-[5-(pyridin-3-yloxy)-oxazolo[5,4-d]pyrimidin-2-yl]-phenol] | 103%
COc1c(C)cc(-c2nc3cnc(Oc4cccnc4)nc3o2)cc1C [Example 9, 2-(4-methoxy-3,5-dimethyl-phenyl)-5-(pyridin-3-yloxy)-oxazolo[5,4-d]pyrimidine] | 87%
COc1ccc(-c2nc3cnc(Oc4ccccc4F)nc3o2)cc1C(F)(F)F [Example 6, 5-(2-fluoro-phenoxy)-2-(4-methoxy-3-trifluoromethyl-phenyl)-oxazolo[5,4-d]pyrimidine] | 87%
COc1ccc(-c2nc3cnc(Oc4ccccc4F)nc3o2)cc1C [Example 5, 5-(2-fluoro-phenoxy)-2-(4-methoxy-3-methyl-phenyl)-oxazolo[5,4-d]pyrimidine] | 42%
COc1cccc(-c2nc3cnc(Oc4ccccc4F)nc3o2)c1 [Example 3, 5-(2-fluoro-phenoxy)-2-(3-methoxy-phenyl)-oxazolo[5,4-d]pyrimidine] | 95%
COc1c(C)cc(-c2nc3cnc(Oc4ccccc4)nc3o2)cc1C [Example 8, 2-(4-methoxy-3,5-dimethyl-phenyl)-5-phenoxy-oxazolo[5,4-d]pyrimidine] | 94%
Oc1ccc(-c2nc3cnc(Oc4ccccc4F)nc3o2)cc1C(F)(F)F [Example 10, 4-[5-(2-fluoro-phenoxy)-oxazolo[5,4-d]pyrimidin-2-yl]-2-trifluoromethyl-phenol] | 107%
Cc1cc(-c2nc3cnc(Oc4ccccc4F)nc3o2)ccc1S(C)(=O)=O [Example 13, 5-(2-fluorophenoxy)-2-(4-methanesulfonyl-3-methylphenyl)-oxazolo[5,4-d]pyrimidine] | 120%
Cc1cc(-c2nc3cnc(Oc4ccccc4F)nc3o2)cc(C)c1O [Example 2, 4-[5-(2-Fluoro-phenoxy)-oxazolo[5,4-d]pyrimidin-2-yl]-2,6-dimethyl-phenol] | 115%
Cc1cc(-c2nc3cnc(Oc4ccccc4F)nc3o2)ccc1O [Example 7, 4-[5-(2-fluoro-phenoxy)-oxazolo[5,4-d]pyrimidin-2-yl]-2-methyl-phenol] | 115%
Cc1cc(S(C)(=O)=O)ccc1-c1nc2cnc(Oc3ccccc3F)nc2o1 [Example 14, 5-(2-fluorophenoxy)-2-(4-methanesulfonyl-2-methylphenyl)-oxazolo[5,4-d]pyrimidine] | 69%
Cc1cc(-c2nc3cnc(Oc4cccc(F)c4)nc3o2)cc(C(C)C)c1O [Example 12, 4-[5-(3-fluorophenoxy)-oxazolo[5,4-d]pyrimidin-2-yl]-2-isopropyl-6-methyl-phenol] | 112%
Oc1ccc(-c2nc3cnc(Oc4ccccc4F)nc3o2)cc1 [Example 4, 4-[5-(2-fluoro-phenoxy)-oxazolo[5,4-d]pyrimidin-2-yl]-phenol] | 83%
